For one compound, IC50 and GI50 results are on record in patent US20130045983A1, “HSP90 INHIBITORS FOR THERAPEUTIC TREATMENT” (Novartis AG, priority 2008, published 2013).

What all share (type): cell-based
One assay concerns LXFE 211. Put plainly: Clonogenic assay, LXFE 211. The note with it: Homo sapiens, Lung, non-small cell, Squamous cell carcinoma, soft agar, read-out: IC50 (colony formation). On the procedure: (§1) The anticancer activity of (R)-2-amino-7-[2-(6-methoxy-pyridin-2-yl)-phenyl]-4-methyl-7,8-dihydro-6H-pyrido[4,3-d]pyrimidin-5-one is evaluated in 30 human tumor xenografts in vitro using a clonogenic assay. In this assay, human cells derived from cancer patients are evaluated for the capacity of (R)-2-amino-7-[2-(6-methoxy-pyridin-2-yl)-phenyl]-4-methyl-7,8-dihydro-6H-pyrido[4,3-d]pyrimidin-5-one to inhibit the formation of 3 dimensional colonies. […] The tumor xenografts which have never been cultured in cell culture plastic dishes are isolated from nude mice. Tumor cell suspensions are prepared and incubated in 24 well plates containing layers of soft agar. Under these conditions a special subpopulation of cells selectively grows to colonies. (R)-2-amino-7-[2-(6-methoxy-pyridin-2-yl)-phenyl]-4-methyl-7,8-dihydro-6H-pyrido[4,3-d]pyrimidin-5one is tested in 6 concentrations up to 1000 nM. The tumor test panel comprises 1 to 10 models of 12 different human tumor types, which were bladder cancer, colon, gastric, non small cell lung (adeno, squamous cell, and large cell), small cell lung, mammary, ovary, and prostate cancer, as well as leukemia, lymphoma, melanoma, and sarcoma. Antitumor effects are recorded as inhibition of colony formation in relation to untreated controls. […]

The subject of another assay is H1975. As to the kind of experiment: Cell proliferation assay, H1975 (lung). The conditions noted are these: Homo sapiens, NCI-H1975, 72 hours in presence of compound. The procedure: (§2) Seventeen cancer derived cell lines are used (GTL-16, N87, H1975, A549, H69, A2780, PC3, BT474, SKBR3, MCF-7, A375, MV4;11, K562, KM12L4A, H929, OPM-2 and KMS-11) to test the effect of (R)-2-amino-7-[2-(6-methoxy-pyridin-2-yl)-phenyl]-4-methyl-7,8-dihydro-6H-pyrido[4,3-d]pyrimidin-5-one. These cell lines cover the following 9 tumor types: Gastric, Lung, Ovarian, Prostate, Breast, Melanoma, Leukemia, Colon and Multiple myeloma. After division and medium change, cells from stock culture are seeded on cell plates and cultured for about 18 hours to allow cell growth and attachment before starting the assay. Then on the first day of the assay, (R)-2-amino-7-[2-(6-methoxy-pyridin-2-yl)-phenyl]-4-methyl-7,8-dihydro-6H-pyrido[4,3-d]pyrimidin-5-one is added to the medium at various concentrations. Cells are cultured up to 72 or 96 hours and cell proliferation is determined using commercially available cell proliferation kits.
(§3) Table 1 relates to the concentration in nM of (R)-2-amino-7-[2-(6-methoxy-pyridin-2-yl)-phenyl]-4-methyl-7,8-dihydro-6H-pyrido[4,3-d]pyrimidin-5-one which inhibits cell proliferation by 50% (IC50). […]

The next assay has as its system LXFL 1176. Put plainly: Clonogenic assay, LXFL 1176. The conditions noted are these: Homo sapiens, Lung, non-small cell, Mucous large cell lung carcinoma, soft agar, read-out: IC50 (colony formation). The procedure: as §1
A further assay deals with SXF 1410. As to the kind of experiment: Clonogenic assay, SXF 1410. The note with it: Homo sapiens, Sarcoma, Fibroblastic osteosarcoma, soft agar, read-out: IC50 (colony formation). On the procedure:
as §1

A further assay concerns LEXF JURKAT. As to the kind of experiment: Clonogenic assay, LEXF JURKAT. The conditions noted are these: Homo sapiens, Leukemia, T cell leukemia, soft agar, read-out: IC50 (colony formation). On the procedure:
as §1

Another assay deals with LEXF CCRFCEM. As to the kind of experiment: Clonogenic assay, LEXF CCRFCEM. The conditions noted are these: Homo sapiens, CCRF-CEM, Leukemia, ALL, T lymphoblast, soft agar, read-out: IC50 (colony formation). The procedure: as §1
A further assay relates to BT474. As to the kind of experiment: Cell proliferation assay, BT474 (breast). The conditions noted are these: Homo sapiens, BT-474, 72 hours in presence of compound. The procedure:
as §2, §3

The test system of the next assay is CXF 214. Put plainly: Clonogenic assay, CXF 214. The conditions noted are these: Homo sapiens, Stomach, Adenocarcinoma, soft agar, read-out: IC50 (colony formation). On the procedure:
as §1

Another assay deals with LXFA 289. Put plainly: Clonogenic assay, LXFA 289. The note with it: Homo sapiens, Lung, non-small cell, Adenocarcinoma, soft agar, read-out: IC50 (colony formation). On the procedure:
as §1

Another assay has as its system PRXF PC3M. As to the kind of experiment: Clonogenic assay, PRXF PC3M. The conditions noted are these: Homo sapiens, PC-3M, Prostate, Adenocarcinoma, metastatic, soft agar, read-out: IC50 (colony formation). The procedure:
as §1

A further assay deals with LEXF MOLT4. Put plainly: Clonogenic assay, LEXF MOLT4. The note with it: Homo sapiens, MOLT-4, Leukemia, ALL, T lymphoblast, soft agar, read-out: IC50 (colony formation). The procedure: as §1
For the next assay, the system named is MEXF 1341. As to the kind of experiment: Clonogenic assay, MEXF 1341. The conditions noted are these: Homo sapiens, Amelanotic melanoma, soft agar, read-out: IC50 (colony formation). On the procedure: as §1
A further assay has as its system CXF 1103. As to the kind of experiment: Clonogenic assay, CXF 1103. The note with it: Homo sapiens, CXF1103, Colon, Adenocarcinoma, soft agar, read-out: IC50 (colony formation). On the procedure: as §1
Another assay relates to MAXF 574. Put plainly: Clonogenic assay, MAXF 574. The conditions noted are these: Homo sapiens, Breast, Carcinoma, soft agar, read-out: IC50 (colony formation). The procedure: as §1
The test system of another assay is PRXF MRIH1579. Put plainly: Clonogenic assay, PRXF MRIH1579. The note with it: Homo sapiens, Prostate, Adenocarcinoma, soft agar, read-out: IC50 (colony formation). The procedure: as §1
The subject of another assay is LXFA 629. Put plainly: Clonogenic assay, LXFA 629. The note with it: Homo sapiens, Lung, non-small cell, Adenocarcinoma, soft agar, read-out: IC50 (colony formation). The procedure: as §1
The next assay deals with LYXF U937. As to the kind of experiment: Clonogenic assay, LYXF U937. The note with it: Homo sapiens, U-937, Histiocytic lymphoma, soft agar, read-out: IC50 (colony formation). The procedure:
as §1

For the next assay, the system named is OVXF 1353. Put plainly: Clonogenic assay, OVXF 1353. The conditions noted are these: Homo sapiens, Ovary, Adenocarcinoma, soft agar, read-out: IC50 (colony formation). On the procedure: as §1

For orientation: IC50 means the concentration that inhibits the measured activity by half. By GI50 is commonly meant the concentration that inhibits growth by half.

Take `COc1cccc(-c2ccccc2[C@H]2Cc3nc(N)nc(C)c3C(=O)N2)n1` [(R)-2-amino-7-[2-(6-methoxy-pyridin-2-yl)-phenyl]-4-methyl-7,8-dihydro-6H-pyrido[4,3-d]pyrimidin-5-one]: the IC50 in the assay with LXFE 211 was 0.76 nM; with LXFL 1176, 21 nM; in the assay with SXF 1410 it was more than 1000 nM; in the assay on LEXF JURKAT it was 4 nM; with LEXF CCRFCEM, 27 nM; in the assay on CXF 214 it was more than 1000 nM. In addition, the IC50 is 639 nM in the assay on LXFA 289; 276 nM in the assay with PRXF PC3M; 21 nM in the assay with LEXF MOLT4; more than 1000 nM in the assay with MEXF 1341; 27 nM in the assay on CXF 1103; 316 nM with MAXF 574. For the same compound, the IC50 in the assay on PRXF MRIH1579 was more than 1000 nM; with LXFA 629 it was 27 nM; in the assay on LYXF U937, 28 nM; with OVXF 1353, 53 nM. The GI50 came out at 33 nM with H1975 and 6 nM in the assay with BT474.
